The source of these data is patent publication US20110136666A1, “CHEMICAL COMPOUNDS” (SYNGENTA CROP PROTECTION, INC., priority 2008, published 2011).

One assay has as its system Setaria faberi (SETFA). The assay can be described thus: Pre-emergence biological efficacy, glasshouse pot test. Format: in vivo. The following applies: 312 h, 1000 g/ha, after 13 days, 100=total damage, 0=no damage, read-out: Percentage damage caused to weed species SETFA. An outline of the steps:
(§1)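 Pots sown with weed seeds, sprayed 1 day after sowing with test compound in acetone/water (50:50) plus 0.5% Tween 20 at 250 or 1000 g/ha. Plants grown in glasshouse at 24/16° C day/night, 14 h light, 65% humidity, watered twice daily. Damage scored visually after 13 days (0 = none, 100 = total).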
As to `COC(=O)c1nc(-c2cnc(OC)nc2)nc(N)c1Cl` [Compound 2-182, 4-Amino-5-chloro-6-methoxycarbonyl-2-(2-methoxypyrimidin-5-yl)-pyrimidine], the pest or weed control at 1000 g/ha came out at 0%.
As for `COC(=O)c1nc(-c2cncc3ccccc23)nc(N)c1Cl` [Compound 2-196, 4-Amino-5-chloro-2-isoquinolin-4-yl-6-methoxycarbonyl pyrimidine], the pest or weed control at 1000 g/ha amounted to 0%.

Another assay concerns Echinochloa crus-galli (ECHCG). Described as above. Format: in vivo. The note with it: 312 h, 1000 g/ha, after 13 days, 100=total damage, 0=no damage, read-out: Percentage damage caused to weed species ECHCG. The method, boiled down: as §1
Regarding `COC(=O)c1nc(-c2cnc(OC)nc2)nc(N)c1Cl` [Compound 2-182, 4-Amino-5-chloro-6-methoxycarbonyl-2-(2-methoxypyrimidin-5-yl)-pyrimidine], the pest or weed control at 1000 g/ha was 0%.
Same read-out and setting: the figure for `COC(=O)c1nc(-c2cncc3ccccc23)nc(N)c1Cl` [Compound 2-196, 4-Amino-5-chloro-2-isoquinolin-4-yl-6-methoxycarbonyl pyrimidine] is 0%.

Another assay has as its system Alopecurus myosuroides (ALOMY). Described as above. The format is in vivo. The note with it: 312 h, 1000 g/ha, after 13 days, 100=total damage, 0=no damage, read-out: Percentage damage caused to weed species ALOMY. An outline of the steps:
as §1
With `COC(=O)c1nc(-c2cnc(OC)nc2)nc(N)c1Cl` [Compound 2-182, 4-Amino-5-chloro-6-methoxycarbonyl-2-(2-methoxypyrimidin-5-yl)-pyrimidine], the pest or weed control at 1000 g/ha stood at 0%.
Take `COC(=O)c1nc(-c2cncc3ccccc23)nc(N)c1Cl` [Compound 2-196, 4-Amino-5-chloro-2-isoquinolin-4-yl-6-methoxycarbonyl pyrimidine]: the pest or weed control at 1000 g/ha came out at 0%.

Another assay concerns Amaranthus retroflexus (AMARE). The assay is described as above. Format: in vivo. The note with it: 312 h, 1000 g/ha, after 13 days, 100=total damage, 0=no damage, read-out: Percentage damage caused to weed species AMARE. The method, boiled down:
as §1
Regarding `COC(=O)c1nc(-c2cnc(OC)nc2)nc(N)c1Cl` [Compound 2-182, 4-Amino-5-chloro-6-methoxycarbonyl-2-(2-methoxypyrimidin-5-yl)-pyrimidine], the pest or weed control at 1000 g/ha was found to be 0%.
On the same count and under the same terms, the figure for `COC(=O)c1nc(-c2cncc3ccccc23)nc(N)c1Cl` [Compound 2-196, 4-Amino-5-chloro-2-isoquinolin-4-yl-6-methoxycarbonyl pyrimidine] is 0%.

The test system of a further assay is Ipomea hederaceae (IPOHE). The assay is described as above. The format is in vivo. The following applies: Ipomoea hederacea, 312 h, 1000 g/ha, after 13 days, 100=total damage, 0=no damage, read-out: Percentage damage caused to weed species IPOHE. The method, boiled down: as §1
Turning to `COC(=O)c1nc(-c2cnc(OC)nc2)nc(N)c1Cl` [Compound 2-182, 4-Amino-5-chloro-6-methoxycarbonyl-2-(2-methoxypyrimidin-5-yl)-pyrimidine], the pest or weed control at 1000 g/ha is 0%.
Still for that read-out and setting: in the case of `COC(=O)c1nc(-c2cncc3ccccc23)nc(N)c1Cl` [Compound 2-196, 4-Amino-5-chloro-2-isoquinolin-4-yl-6-methoxycarbonyl pyrimidine] it was 0%.

In the next assay the test system is Solanum nigrum (SOLNI). Described as above. Format: in vivo. The following applies: 312 h, 1000 g/ha, after 13 days, 100=total damage, 0=no damage, read-out: Percentage damage caused to weed species SOLNI. The method, boiled down:
as §1
Regarding `COC(=O)c1nc(-c2cnc(OC)nc2)nc(N)c1Cl` [Compound 2-182, 4-Amino-5-chloro-6-methoxycarbonyl-2-(2-methoxypyrimidin-5-yl)-pyrimidine], the pest or weed control at 1000 g/ha came out at 40%.
Still for that read-out and setting: the figure for `COC(=O)c1nc(-c2cncc3ccccc23)nc(N)c1Cl` [Compound 2-196, 4-Amino-5-chloro-2-isoquinolin-4-yl-6-methoxycarbonyl pyrimidine] is 0%.

The subject of a further assay is Setaria faberi (SETFA). Briefly: Post-emergence biological efficacy, glasshouse pot test. The note with it: 312 h, 1000 g/ha, after 13 days, 100=total damage, 0=no damage, read-out: Percentage damage caused to weed species SETFA. Format: in vivo. The method, boiled down: (§2)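 Species sown in soil and grown 8 days in glasshouse (24/16 °C day/night, 14 h light, 65% humidity), then sprayed with compound in acetone/water (50:50) with 0.5% Tween 20 at 250 or 1000 g/ha. Damage scored visually after 13 days (0 = none, 100 = total).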
As for `COC(=O)c1nc(-c2cnc(OC)nc2)nc(N)c1Cl` [Compound 2-182, 4-Amino-5-chloro-6-methoxycarbonyl-2-(2-methoxypyrimidin-5-yl)-pyrimidine], the pest or weed control at 1000 g/ha came out at 10%.
Same read-out and setting: the figure for `COC(=O)c1nc(-c2cncc3ccccc23)nc(N)c1Cl` [Compound 2-196, 4-Amino-5-chloro-2-isoquinolin-4-yl-6-methoxycarbonyl pyrimidine] is 0%.

The subject of the next assay is Echinochloa crus-galli (ECHCG). Described as above. The note with it: 312 h, 1000 g/ha, after 13 days, 100=total damage, 0=no damage, read-out: Percentage damage caused to weed species ECHCG. The format is in vivo. The method, boiled down: as §2
With `COC(=O)c1nc(-c2cnc(OC)nc2)nc(N)c1Cl` [Compound 2-182, 4-Amino-5-chloro-6-methoxycarbonyl-2-(2-methoxypyrimidin-5-yl)-pyrimidine], the pest or weed control at 1000 g/ha worked out at 0%.
Same read-out and setting: in the case of `COC(=O)c1nc(-c2cncc3ccccc23)nc(N)c1Cl` [Compound 2-196, 4-Amino-5-chloro-2-isoquinolin-4-yl-6-methoxycarbonyl pyrimidine] it was 0%.

For the next assay, the system named is Alopecurus myosuroides (ALOMY). The description is as above. The format is in vivo. The note with it: 312 h, 1000 g/ha, after 13 days, 100=total damage, 0=no damage, read-out: Percentage damage caused to weed species ALOMY. The method, boiled down: as §2
As to `COC(=O)c1nc(-c2cnc(OC)nc2)nc(N)c1Cl` [Compound 2-182, 4-Amino-5-chloro-6-methoxycarbonyl-2-(2-methoxypyrimidin-5-yl)-pyrimidine], the pest or weed control at 1000 g/ha came to 0%.
On the same count and under the same terms, in the case of `COC(=O)c1nc(-c2cncc3ccccc23)nc(N)c1Cl` [Compound 2-196, 4-Amino-5-chloro-2-isoquinolin-4-yl-6-methoxycarbonyl pyrimidine] it was 0%.

A further assay deals with Amaranthus retroflexus (AMARE). Described as above. Format: in vivo. The note with it: 312 h, 1000 g/ha, after 13 days, 100=total damage, 0=no damage, read-out: Percentage damage caused to weed species AMARE. An outline of the steps: as §2
Turning to `COC(=O)c1nc(-c2cnc(OC)nc2)nc(N)c1Cl` [Compound 2-182, 4-Amino-5-chloro-6-methoxycarbonyl-2-(2-methoxypyrimidin-5-yl)-pyrimidine], the pest or weed control at 1000 g/ha was determined as 20%.
Same read-out and setting: the figure for `COC(=O)c1nc(-c2cncc3ccccc23)nc(N)c1Cl` [Compound 2-196, 4-Amino-5-chloro-2-isoquinolin-4-yl-6-methoxycarbonyl pyrimidine] is 0%.

The next assay relates to Ipomea hederaceae (IPOHE). Described as above. The format is in vivo. The note with it: Ipomoea hederacea, 312 h, 1000 g/ha, after 13 days, 100=total damage, 0=no damage, read-out: Percentage damage caused to weed species IPONE. The method, boiled down:
as §2
Turning to `COC(=O)c1nc(-c2cnc(OC)nc2)nc(N)c1Cl` [Compound 2-182, 4-Amino-5-chloro-6-methoxycarbonyl-2-(2-methoxypyrimidin-5-yl)-pyrimidine], the pest or weed control at 1000 g/ha is 30%.
Same read-out and setting: in the case of `COC(=O)c1nc(-c2cncc3ccccc23)nc(N)c1Cl` [Compound 2-196, 4-Amino-5-chloro-2-isoquinolin-4-yl-6-methoxycarbonyl pyrimidine] it was 0%.

The next assay has as its system Solanum nigrum (SOLNI). The description is as above. The format is in vivo. The following applies: 312 h, 1000 g/ha, after 13 days, 100=total damage, 0=no damage, read-out: Percentage damage caused to weed species SOLNI. An outline of the steps: as §2
As for `COC(=O)c1nc(-c2cnc(OC)nc2)nc(N)c1Cl` [Compound 2-182, 4-Amino-5-chloro-6-methoxycarbonyl-2-(2-methoxypyrimidin-5-yl)-pyrimidine], the pest or weed control at 1000 g/ha was 70%.
For `COC(=O)c1nc(-c2cncc3ccccc23)nc(N)c1Cl` [Compound 2-196, 4-Amino-5-chloro-2-isoquinolin-4-yl-6-methoxycarbonyl pyrimidine], the pest or weed control at 1000 g/ha turned out to be 0%.
